Measurements taken from patent US20210100781A1, “TUMOR SUPPRESSION” (Kyoto University, priority 2019, published 2021).

Experiments:
[1] = tested on: KSHV; experiment: Suppression of viral replication: KSHV copy number by real-time PCR; format: cell-based; conditions: BCBL-1 cells undergoing lytic induction, 96 hours, compound increased to 5 μM and to 10 μM
Experimental: Effects of the compound A on the KSHV copy number were analyzed by real-time PCR.
The compound A was added to the BCBL-1 cells undergoing lytic induction and cultured for 96 hours; then, DNA samples were collected and analyzed by real-time PCR.

[2] = tested on: BCBL-1 cells; experiment: Intraperitoneal administration to PEL xenograft mouse models; format: in vivo, mice (NOD/SCID mice); conditions: 300 mg/kg bw intraperitoneally three times a week, 45 days
Experimental: BCBL-1 cells were intraperitoneally inoculated into immunodeficient mice (NOD/SCID mice) so that PEL xenograft models were produced. PEL refers to “primary effusion lymphoma”, as described above. The mice were divided into a compound A administered group and a control group. […] To the control group, PBS was administered intraperitoneally three times a week instead of the compound A. Exemplary results thereof are shown in FIG. 5.

[3] = tested on: KSHV; experiment: Viruses in ascites and plasma of PEL xenograft mice; format: in vivo, mice (NOD/SCID mice); conditions: 300 mg/kg bw intraperitoneally three times a week, 45 days
Experimental: BCBL-1 cells were intraperitoneally inoculated into immunodeficient mice (NOD/SCID mice) so that PEL xenograft models were produced. PEL refers to “primary effusion lymphoma”, as described above.
The mice were divided into a compound A administered group and a control group. […] To the control group, PBS was administered intraperitoneally three times a week instead of the compound A. Exemplary results thereof are shown in FIG. 5.
Viruses in ascites and plasma of the above-described mice were detected.

[4] = tested on: E6 and E7 genes of HPV; conditions: known from WO2005/063293, WO2009/020198, Yamamoto et al. 2014; cited from earlier work
[5] = tested on: lytic genes; experiment: Suppression of lytic induction in KSHV+ PEL cells (RT-PCR and Western blotting); format: cell-based; conditions: BC-3 cells and BCBL-1 cells undergoing lytic induction, 48 hours
Excerpt: Both of the BC-3 cells and the BCBL-1 cells are cell lines of KSHV^+ PEL cells. Regarding the BC-3 cells, it is known that TPA (12-O-tetradecanoylphorbol-13-acetate) and SB (sodium butyrate) cause cytokine stimulation, which results in the lytic induction. Further, regarding the BCBL-1 cells, it is known that VPA (valproic acid) causes cytokine stimulation, which results in the lytic induction.
Such cytokine stimulation was given to the BC-3 cells and the BCBL-1 cells, and the cells were cultured for 24 hours or 48 hours. Then, RNA of the same was collected, and was subjected to RT-PCR.
Effects of the compound A (the compound A produced in Production Example 1, also described as “Cp. A”) were confirmed by using the same BC-3 cells and BCBL-1 cells as those in Reference Example 1.
The compound A was added to the BC-3 cells and the BCBL-1 cells undergoing lytic induction and cultured for 48 hours; then, the cultured cells were analyzed by RT-PCR and Western blotting.

What does the source list for `Fc1ccc(N2CCCCC2)c(NC(=S)c2ccncc2)c1` [compound A, N-[5-fluoro-2-(1-piperidinyl)phenyl]-4-pyridinethioamide]?
virus copy number (real-time PCR) [1]: decreased; amount of ascites ([2]; vs control group (PBS)): significantly less; enlarged spleen ([2]; vs control group, data not shown): particularly suppressed; amount of viruses in ascites ([3]; ascites): significantly decrease; amount of viruses in plasma ([3]; plasma): significantly decrease; expression of the E6 and E7 genes of HPV [4]: suppress; p53 gene stabilization [4]: stabilize; expression of the lytic genes at protein level (Western blotting) [5]: suppressed; expression amount of lytic genes (RT-PCR) ([5]; compound increased to 5 μM and to 10 μM): decreased
